Laboratory results taken from ChEMBL document CHEMBL1201862, “PubChem BioAssay data set” (2004).
Where “and” joins values, the source holds several entries; their conditions need not be identical. Identical values can stand only once.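 Dose response: 5 concentrations. Exposure: 48 h. Format: 96-well plates. Endpoint: linear interpolation; highest concentration if not reached. Abbreviation: GI50, concentration required for 50% inhibition of growth.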 Calls of active or inactive are those of the source. Rule as the data show it: active = GI50 up to about 1.1 µM and inactive = higher.

Key:
Assay in all cases: growth of human tumour cells (NCI), 48 h
CAKI-1 = test system: CAKI-1
UACC-257 = test system: UACC-257
OVCAR-3 = test system: OVCAR-3
Malme-3M = test system: Malme-3M
Hs-578T = test system: Hs-578T
EKVX = test system: EKVX
HOP-92 = test system: HOP-92
OVCAR-4 = test system: OVCAR-4
SF-539 = test system: SF-539
IGROV-1 = test system: IGROV-1
BT-549 = test system: BT-549
U-251 = test system: U-251
NCI/ADR-RES = test system: NCI/ADR-RES
LOX IMVI = test system: LOX IMVI
COLO 205 = test system: COLO 205
SNB-19 = test system: SNB-19
NCI-H226 = test system: NCI-H226
UO-31 = test system: UO-31
SK-MEL-5 = test system: SK-MEL-5
KM12 = test system: KM12

N=C(N)SC1c2ccccc2-c2cc([N+](=O)[O-])ccc21 (stereo not given)
GI50 (CAKI-1): 6.1 µM (inactive)
GI50 (UACC-257): 7.45 µM (inactive)
GI50 (OVCAR-3): 2.69 µM (inactive)
GI50 (Malme-3M): 5.19 µM (inactive)
GI50 (Hs-578T): 3.1 µM (inactive)
GI50 (EKVX): 10.4 µM (inactive)
GI50 (HOP-92): 13.7 µM (inactive)
GI50 (OVCAR-4): 5 µM (inactive)
GI50 (SF-539): 3.96 µM (inactive)
GI50 (IGROV-1): 5.62 µM (inactive)
GI50 (BT-549): 6.05 µM (inactive)
GI50 (U-251): 2.75 µM (inactive)
GI50 (NCI/ADR-RES): 3.01 µM (inactive)
GI50 (LOX IMVI): 5.57 µM (inactive)
GI50 (COLO 205): 2.94 µM (inactive)
GI50 (SNB-19): 3.66 µM (inactive)
GI50 (NCI-H226): 7.53 µM (inactive)
GI50 (UO-31): 8.13 µM (inactive)
GI50 (SK-MEL-5): 3.08 µM (inactive)
GI50 (KM12): 3.23 µM (inactive)

O=C(Cc1ccc(Cl)cc1)Nc1ccc2oc(-c3ccccc3)nc2c1
GI50 (CAKI-1): > 100 µM (inactive)
GI50 (UACC-257): > 100 µM (inactive)
GI50 (OVCAR-3): > 100 µM (inactive)
GI50 (Malme-3M): > 100 µM (inactive)
GI50 (Hs-578T): > 100 µM (inactive)
GI50 (EKVX): 30.8 µM (inactive)
GI50 (HOP-92): > 100 µM (inactive)
GI50 (OVCAR-4): 29.5 µM (inactive)
GI50 (SF-539): 35.2 µM (inactive)
GI50 (IGROV-1): > 100 µM (inactive)
GI50 (BT-549): > 100 µM (inactive)
GI50 (U-251): 56.1 µM (inactive)
GI50 (NCI/ADR-RES): 57.8 µM (inactive)
GI50 (LOX IMVI): > 100 µM (inactive)
GI50 (COLO 205): > 100 µM (inactive)
GI50 (SNB-19): 38.9 µM (inactive)
GI50 (NCI-H226): 27.6 µM (inactive)
GI50 (SK-MEL-5): > 100 µM (inactive)
GI50 (KM12): > 100 µM (inactive)

CC1CCC2(C(=O)O)CCC3(C)C(=CCC4C5(C)CCC(O)C(C)(C)C5CCC43C)C2C1C (stereo not given)
GI50 (CAKI-1): 6 µM (inactive) and 3.7 µM (inactive)
GI50 (OVCAR-3): 7.52 µM (inactive) and 13.8 µM (inactive)
GI50 (Malme-3M): 15.1 µM (inactive) and 14 µM (inactive)
GI50 (Hs-578T): 8.71 µM (inactive)
GI50 (EKVX): 10.6 µM (inactive) and 13.8 µM (inactive)
GI50 (HOP-92): 18.4 µM (inactive) and 11.9 µM (inactive)
GI50 (OVCAR-4): 17.3 µM (inactive) and 13.3 µM (inactive)
GI50 (SF-539): 13.4 µM (inactive) and 11 µM (inactive)
GI50 (IGROV-1): 13.4 µM (inactive) and 18.2 µM (inactive)
GI50 (BT-549): 19 µM (inactive)
GI50 (U-251): 9.68 µM (inactive) and 17.8 µM (inactive)
GI50 (NCI/ADR-RES): 14.7 µM (inactive) and 11.2 µM (inactive)
GI50 (LOX IMVI): 4.13 µM (inactive) and 6.59 µM (inactive)
GI50 (COLO 205): 13.7 µM (inactive) and 14.7 µM (inactive)
GI50 (SNB-19): 10.3 µM (inactive)
GI50 (NCI-H226): 19.7 µM (inactive) and 11.1 µM (inactive)
GI50 (UO-31): 6.75 µM (inactive) and 4.07 µM (inactive)
GI50 (KM12): 6.62 µM (inactive) and 9.29 µM (inactive)

CSc1ccc(C2C(Cl)C(=O)N2NC(=O)c2c(Cl)c(Cl)c(Cl)c(Cl)c2-c2nc3ccccc3[nH]2)cc1 (stereo not given)
GI50 (CAKI-1): 14.9 µM (inactive)
GI50 (UACC-257): 27.2 µM (inactive)
GI50 (OVCAR-3): 21.8 µM (inactive)
GI50 (Malme-3M): 19 µM (inactive)
GI50 (Hs-578T): 32.5 µM (inactive)
GI50 (EKVX): 16.5 µM (inactive)
GI50 (HOP-92): 11.5 µM (inactive)
GI50 (SF-539): 20.8 µM (inactive)
GI50 (IGROV-1): 0.402 µM (active)
GI50 (BT-549): 17.2 µM (inactive)
GI50 (NCI/ADR-RES): 29.9 µM (inactive)
GI50 (LOX IMVI): 4.18 µM (inactive)
GI50 (COLO 205): 20.3 µM (inactive)
GI50 (SNB-19): 29.7 µM (inactive)
GI50 (NCI-H226): 16.1 µM (inactive)
GI50 (UO-31): 3.93 µM (inactive)
GI50 (SK-MEL-5): 17.1 µM (inactive)
GI50 (KM12): 16.8 µM (inactive)

Cn1c(=O)c2c(ncn2CCNC(CO)C(O)c2ccc([N+](=O)[O-])cc2)n(C)c1=O (stereo not given)
GI50 (CAKI-1): > 100 µM (inactive)
GI50 (UACC-257): > 100 µM (inactive)
GI50 (OVCAR-3): > 100 µM (inactive)
GI50 (Malme-3M): > 100 µM (inactive)
GI50 (Hs-578T): > 10 µM (inactive)
GI50 (EKVX): > 100 µM (inactive)
GI50 (HOP-92): > 100 µM (inactive)
GI50 (OVCAR-4): > 100 µM (inactive)
GI50 (SF-539): > 100 µM (inactive)
GI50 (IGROV-1): > 10 µM (inactive)
GI50 (BT-549): > 100 µM (inactive)
GI50 (U-251): > 100 µM (inactive)
GI50 (NCI/ADR-RES): > 100 µM (inactive)
GI50 (LOX IMVI): > 100 µM (inactive)
GI50 (COLO 205): > 100 µM (inactive)
GI50 (SNB-19): > 100 µM (inactive)
GI50 (NCI-H226): > 100 µM (inactive)
GI50 (UO-31): > 100 µM (inactive)
GI50 (SK-MEL-5): > 100 µM (inactive)
GI50 (KM12): > 100 µM (inactive)
